Measured values published in BigSolDB 2.1.

C[C@@H]1CC[C@@]2(OC1)O[C@H]1C[C@H]3[C@@H]4CC=C5C[C@@H](O)CC[C@]5(C)[C@H]4CC[C@]3(C)[C@H]1[C@@H]2C
Conditions | solubility (mole fraction)
in ethanol, 289.15 K | 0.00106
in ethanol, 301.05 K | 0.00147
in ethanol, 305.75 K | 0.0017
in ethanol, 312.35 K | 0.00188
in ethanol, 312.65 K | 0.00196
in ethanol, 316.65 K | 0.00227
in ethanol, 320.25 K | 0.00253
in ethanol, 322.35 K | 0.00269
in ethanol, 324.05 K | 0.0029
in ethanol, 325.65 K | 0.00306
in ethanol, 327.65 K | 0.00324
in ethanol, 329.05 K | 0.00338
in ethanol, 331.25 K | 0.00353
in ethanol, 332.35 K | 0.00372
in ethanol, 334.15 K | 0.00388
in isobutanol, 305.15 K | 0.00236
in isobutanol, 306.95 K | 0.00266
in isobutanol, 307.65 K | 0.00296
in isobutanol, 308.65 K | 0.00332
in isobutanol, 310.15 K | 0.00364
in isobutanol, 311.65 K | 0.00416
in isobutanol, 312.95 K | 0.00456
in isobutanol, 313.85 K | 0.00499
in isobutanol, 314.85 K | 0.0054
in isobutanol, 316.15 K | 0.00582
in isobutanol, 317.65 K | 0.00625
in isobutanol, 319.65 K | 0.00672
in isobutanol, 320.65 K | 0.0071
in isobutanol, 322.15 K | 0.00754
in isobutanol, 323.85 K | 0.00797
in isobutanol, 325.15 K | 0.00836
in isobutanol, 326.95 K | 0.00884
in isobutanol, 328.65 K | 0.00931
in isobutanol, 330.65 K | 0.00979
in isooctanol, 296.55 K | 0.0073
in isooctanol, 298.55 K | 0.00809
in isooctanol, 299.75 K | 0.0091
in isooctanol, 303.15 K | 0.00992
in isooctanol, 305.65 K | 0.0106
in isooctanol, 307.15 K | 0.0114
in isooctanol, 309.25 K | 0.012
in isooctanol, 311.85 K | 0.0129
in isooctanol, 314.65 K | 0.0139
in isooctanol, 315.95 K | 0.0146
in isooctanol, 318.25 K | 0.0154
in isooctanol, 321.05 K | 0.0163
in isooctanol, 323.25 K | 0.017
in isooctanol, 324.95 K | 0.0177
in isooctanol, 326.55 K | 0.0185
in isooctanol, 327.45 K | 0.0192
in isooctanol, 329.75 K | 0.0199
in n-butanol, 295.75 K | 0.00469
in n-butanol, 298.15 K | 0.0052
in n-butanol, 300.15 K | 0.00572
in n-butanol, 304.65 K | 0.00624
in n-butanol, 307.65 K | 0.00659
in n-butanol, 309.65 K | 0.00694
in n-butanol, 311.55 K | 0.00731
in n-butanol, 312.65 K | 0.00767
in n-butanol, 314.25 K | 0.00805
in n-butanol, 315.85 K | 0.0084
in n-butanol, 317.35 K | 0.00914
in n-butanol, 319.15 K | 0.00956
in n-butanol, 320.65 K | 0.00996
in n-butanol, 323.45 K | 0.0105
in n-butanol, 325.45 K | 0.011
in n-butanol, 326.45 K | 0.0114
in n-butanol, 328.45 K | 0.012
in n-pentanol, 290.75 K | 0.00406
in n-pentanol, 292.75 K | 0.00455
in n-pentanol, 296.15 K | 0.00507
in n-pentanol, 299.65 K | 0.00566
in n-pentanol, 301.55 K | 0.00615
in n-pentanol, 304.15 K | 0.00663
in n-pentanol, 307.65 K | 0.00722
in n-pentanol, 309.85 K | 0.00775
in n-pentanol, 312.45 K | 0.00838
in n-pentanol, 314.45 K | 0.00888
in n-pentanol, 316.75 K | 0.00933
in n-pentanol, 317.35 K | 0.00978
in n-pentanol, 318.75 K | 0.0105
in n-pentanol, 320.65 K | 0.0111
in n-pentanol, 322.65 K | 0.0116
in n-pentanol, 324.15 K | 0.0123
in n-pentanol, 325.75 K | 0.0128
in n-pentanol, 327.15 K | 0.0134
in n-pentanol, 329.15 K | 0.0139
in n-propanol, 290.15 K | 0.00163
in n-propanol, 292.95 K | 0.00205
in n-propanol, 295.55 K | 0.00243
in n-propanol, 301.75 K | 0.00278
in n-propanol, 305.25 K | 0.00307
in n-propanol, 307.95 K | 0.0034
in n-propanol, 310.95 K | 0.0039
in n-propanol, 314.75 K | 0.00424
in n-propanol, 318.15 K | 0.00473
in n-propanol, 320.05 K | 0.00506
in n-propanol, 322.75 K | 0.00542
in n-propanol, 326.35 K | 0.0059
in n-propanol, 327.85 K | 0.00622
in n-propanol, 329.25 K | 0.00663
in n-propanol, 330.65 K | 0.00696
in n-propanol, 332.65 K | 0.0073
in tert-butanol, 302.15 K | 0.000811
in tert-butanol, 304.65 K | 0.00108
in tert-butanol, 306.65 K | 0.00134
in tert-butanol, 308.15 K | 0.00151
in tert-butanol, 310.65 K | 0.00175
in tert-butanol, 312.15 K | 0.00198
in tert-butanol, 313.65 K | 0.00223
in tert-butanol, 314.15 K | 0.00244
in tert-butanol, 315.95 K | 0.00274
in tert-butanol, 317.75 K | 0.00307
in tert-butanol, 321.15 K | 0.00343
in tert-butanol, 323.15 K | 0.00368
in tert-butanol, 325.15 K | 0.00392
in tert-butanol, 326.65 K | 0.00427
in tert-butanol, 328.65 K | 0.00467
in tert-butanol, 330.75 K | 0.00497
in tert-butanol, 332.45 K | 0.00529
